Assay results published in publication PMC11181478, “SARS-CoV-2 Main Protease Inhibitors That Leverage Unique Interactions with the Solvent Exposed S3 Site of the Enzyme” (ACS Medicinal Chemistry Letters, 2024).
pEC50: −log10 of the molar value.

Test system: SARS-CoV-2 delta variant (hCoV-19/USA/MD-HP05647/2021)
Assay: Live virus antiviral test in A549-hACE2 cells (RT-qPCR)
Type: cell-based
Conditions: Severe acute respiratory syndrome coronavirus 2, 72 h

SMILES: CC1(C)[C@@H]2[C@@H](C(=O)N[C@H](C=O)C[C@@H]3CCNC3=O)N(C(=O)[C@H](CC3CCCCC3)NC(=O)OCc3ccccc3)C[C@@H]21 [MPI100]
- pEC50: 5.47
